The nature of data set [1]: pharmacokinetics in blood plasma after oral administration in Wistar rats. The settings on record: Wistar, rat, in vivo, po, 30 mg/kg. The procedure: At the first stage, pharmacokinetics of the Compound 1 free base was studied after oral administration in Wistar rats at dosage of 30 mg/kg.
Pharmacokinetics of several Compound 1 salt forms was studied after oral administration in Wistar rats at a dose of 37 mg/kg (30 mg/kg equivalent to a free base).

The nature of data set [2]: pKa of protonated pyridine nitrogen. Type of data set: physicochemical. The following applies: protonated nitrogen atom of pyridine. The source says:
To obtain a form having optimal biological and physical properties, various salt forms of the Compound 1 was synthesized. A primary goal of the salt form optimization was to obtain a Compound 1 salt form having the following properties: crystallinity, composition stability, therapeutic efficacy, safety, ease of production process scalability, using a pharmacologically acceptable counterion (preferably anion), and using low toxicity organic solvents. The salt forms of Compound 1 were obtained with organic solutions of high polarity and low toxicity (Class 3). The counterions were used based on pharmacological acceptance and high acid strength (pKa not exceeding 3.25). The requirement for the high acid strength is conditioned by the fact that a protonated nitrogen atom of pyridine of the Compound 1 is a weak base having pKa 4.

A short description of data set [3]: solubility of the primary base in selected organic solvents. The settings on record: organic solvent or mixture, thermodynamic from solid. In kind it is physicochemical. On the procedure:
At the first stage solubility of the primary base in the selected organic solvents was studied. Maximum volume of a solvent for this study was selected as 10 ml per 100 mg of the base taking into consideration the subsequent process scaling.

Data set [4] concerns the target human recombinant tyrosine c-Src kinase (Homo sapiens, UniProt P12931). Description: human kinase enzymatic activity in vitro (33P-ATP, peptide substrate). The settings on record: human c-Src kinase. In kind it is biochemical. The procedure: The Compound 1 effect on the human recombinant tyrosine c-Src kinase was measured as follows: a peptide substrate was dissolved in a reaction buffer ad 0.2 mg/ml concentration. A solution of recombinant c-Src kinase was added to 2 nM concentration and the studied compound to the required concentration (within the range of 1 nM to 10 μM) was added. A solution of ^33P-ATP was added to 10 μM concentration (final specific activity of the solution is 0.01 μCi). After 120 minutes of incubation, the reaction mixture was applied on ion-exchange paper, which was rinsed with a plenty of phosphoric acid. A reaction extent was determined based on radioactivity of the reaction products.

For a further data set, the system named is mature human osteoclasts. Description: osteoclast-mediated resorption of mineralized matrix. Type of data set: cell-based. On the procedure: The study was carried out following the method below: CD15+ monocytes (osteoclast precursor cells) were cultivated for 3 days in a proliferation medium (Igla α-modified minimum essential medium/fetal calf serum (aMEM/FCS), 10% with 25 ng/ml of macrophage colony-stimulating factor (M-CSF)). During this stage M-CSF promoted proliferation and expression of a receptor activator of nuclear factor KB (RANK, cappa-B, type I membrane protein). The proliferation medium was removed and cells were differentiated in a differentiation medium (aMEM/FCS-10% with 100 ng/ml of RANKL and 25 ng/ml of M-CSF). When mature osteoclasts were detected in the culture (day 4 of the study), the cells were collected and re-inoculated into a 96-well plate coated with a synthetic mineralized matrix. Cultivation continued for 48 hours (at presence of the studied compounds) to evaluate osteoclast resorption. Then number of mature osteoclasts and the resorption degree were evaluated. An effect of 4-methylbenzenesulfonic acid and Compound 1 salt concentration on concentration and resorption degree of mature osteoclasts was evaluated in comparison with control samples ([…] control, 0.3% DMSO solvent) and reference inhibitors, i.e., saracatinib and bosutinib (see FIG. 18).

Data set [5] has as its system Sprague-Dawley rat models of osteoarthritis induced by intra-articular introduction of sodium iodoacetate. As to the kind of experiment: mechanical allodynia test with von Frey filaments in osteoarthritis induced by sodium iodoacetate. Type of data set: in vivo. The procedure:
The intra-articular introduction of aerobic glycolysis inhibitor (sodium iodoacetate) results in death of chondrocytes and acute inflammatory reaction in a synovial cavity. In absence of treatment, at day 10 from the pathology induction an onset of chronic pain is observed due to cartilage destruction and development of chronic inflammation in particular cases [J Musculoskel Neuron Interact 2001; 1(4):363-376]. Extent of osteoarthritis development in rats was evaluated by comparison of extremity pain sensitivity threshold after the introduction of sodium iodoacetate versus background measurements taken before the pathology induction. The threshold of the pain sensitivity was evaluated by mechanical allodynia test using von Frey filaments (see Table 8).
For the purposes of the study, rat males weighing 150 to 200 g were selected. All the animals underwent acclimatization for 14 days. The animals were housed in a polycarbonate cages of 3H type manufactured by Charles River laboratories Inc according to COST R 53434-2009. 12-hours lighting regimen was maintained. The animals had access to food and water ad libitum. The pathology was induced by introduction of 50 μl solution containing 2 mg of sodium iodoacetate into a synovial cavity of the animal knee joints. Tactile allodynia induced by a mechanical irritation was evaluated using von Frey filaments weighing 0.06 to 23.96 g. The test was repeated five times for each filament at intervals of 1 to 2 s. The sensitivity threshold was considered as a minimum reaction threshold provoking paw withdrawal in one of five repeats.

Data set [6] relates to chondrocytes from knee joint cartilage of young rats. Description: IL-1β-induced hypertrophic changes in chondrocytes (aggrecan expression). In kind it is cell-based, rats (Sprague Dawley). The settings on record: treatment for 3 days. On the procedure: The study was carried out following the method below: chondrocytes were isolated from a knee joint cartilage of young rats (aged 3 weeks, Sprague Dawley line). The isolated chondrocytes in a cultural medium (Dulbecco's modified Igla minimum essential medium/fetal calf serum (DMEM/FCS), 10%, 4-(2-hydroxyethyl)-1-piperazine ethanesulfonic acid (HEPES), 25 mM) was stored frozen at −80° C. The obtained chondrocytes were unfrozen a day before the experiment, inoculated into 12-well plates and cultured as a monolayer during 24 hours. After 24 hours of incubation IL-1β-induced activation of chondrocytes and treatment with the studied compounds was started and continued for 3 days.

The nature of data set [7]: pharmacokinetics in blood plasma after oral administration in Wistar rats. The settings on record: rat, in vivo, 21 mg/kg.
The conditions of data set [8]: further clinical trials, daily exposure of a therapeutically effective dose; cited from earlier work.

human recombinant tyrosine c-Src kinase, sequence (P12931 whole entry): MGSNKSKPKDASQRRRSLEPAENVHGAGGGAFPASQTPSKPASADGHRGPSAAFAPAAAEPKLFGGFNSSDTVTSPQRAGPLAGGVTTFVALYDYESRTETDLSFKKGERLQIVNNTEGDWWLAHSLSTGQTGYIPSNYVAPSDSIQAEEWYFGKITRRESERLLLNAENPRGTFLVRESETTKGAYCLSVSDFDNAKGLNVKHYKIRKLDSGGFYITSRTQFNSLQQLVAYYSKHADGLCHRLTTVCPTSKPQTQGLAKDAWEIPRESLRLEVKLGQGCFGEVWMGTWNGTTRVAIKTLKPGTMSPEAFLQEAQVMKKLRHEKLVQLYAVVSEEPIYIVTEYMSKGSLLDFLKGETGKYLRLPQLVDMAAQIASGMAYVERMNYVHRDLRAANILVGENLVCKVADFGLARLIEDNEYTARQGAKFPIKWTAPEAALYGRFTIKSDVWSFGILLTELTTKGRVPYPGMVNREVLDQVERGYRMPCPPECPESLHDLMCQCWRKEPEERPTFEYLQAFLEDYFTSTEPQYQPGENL

A word on the AUC(0-inf): it is total exposure, with the tail of the curve extrapolated. A higher AUC(0-inf) goes with more exposure. What is called Cmax is the maximum level reached in the sampled fluid or tissue. The Tmax is the time at which the peak concentration occurs. As a reminder, the half-life is the time needed for the level to fall by half in the phase considered. A lower half-life goes with fast loss. One may read the pKa as the pH at which an ionisable group is half protonated. The low end stands for a stronger acid or weaker base, the high end for a weaker acid or stronger base. As a reminder, the solubility is how much of the substance goes into solution per volume. Consider `COc1cc(Nc2ncnc(Nc3ccc4c(n3)NC(=O)C(C)(C)O4)n2)cc(OC)c1OC` [Compound 1, 2,2-dimethyl-6-((4-((3,4,5-trimethoxyphenyl)amino)-1,3,5-triazine-2-yl)amino)-2H-pyrido[3,2-b][1,4]oxazine-3(4H)-one], for which, in data set [1], the AUC0-t amounted to 55 ng·h/mL, the area under the curve AUC(0-inf) was 73 ng·h/mL, the peak level (Cmax) was 4.12 ng/mL and the Tmax came to 4 h. Besides, in [1], the “Vz(/F)” value is reported as 6,982.6 l/kg, the “average daily concentration of the substance” value worked out at 4.8 nmol/L, the half-life is 11.8 h and the “maximum concentration of the substance in plasma” value is 9.1 nmol/L. Also, the “maximum plasma concentration relative to minimum effective concentration” value in data set [1] is given as 100 times lower. The same molecule showed a pKa in data set [2] of 4. For the same molecule, the solubility in [3] (1,4-Dioxane, 106 mg base in 7 ml, 100 °C (code S-1-4-D)) was more than 10000 µg/mL. In data set [3] (Acetone, 97 mg base in 10 ml, 56 °C (code S-1-5-A1)), the solubility is less than 10000 µg/mL. In addition, in [3] (Ethanol, 98 mg base in 10 ml, 78 °C (code S-1-2-C2)), the solubility is less than 10000 µg/mL. The solubility in data set [3] (THF, 103 mg base in 10 ml, 66 °C (code S-1-3-T)) is less than 10000 µg/mL. The solubility in [3] (n-Butanol, 101 mg base in 10 ml, 117 °C (code S-1-1-B)) was less than 10000 µg/mL. Further, the half-maximal inhibitory concentration result in data set [4] was “within a nanomolar range”. Besides, the “effect on osteoclast-mediated resorption of the mineralized matrix” value in the data set with mature human osteoclasts (48 hours cultivation) was “dose-dependent inhibitory effect”. Also, the effective concentration entry in the data set with mature human osteoclasts (studies of Compound 1 biological activity) was “about 1 μmol/l”.

Take `COc1ccc2cc([C@H](C)C(=O)O)ccc2c1` [Naproxen, reference compound]: the “Reaction threshold value, % of control” value in [5] (50 mg/kg intragastric, days 14, 21, 28, day 14) is reported as 82 % of control; in data set [5] (50 mg/kg intragastric, days 14, 21, 28, day 21), 102 % of control; in data set [5] (50 mg/kg intragastric, days 14, 21, 28, day 28) it was 96 % of control.

As for `O=P(O)(O)C(O)(Cn1ccnc1)P(=O)(O)O` [Zoledronic acid, reference compound], the “Reaction threshold value, % of control” value in [5] (0.1 mg/kg subcutaneously, days 0, 3, 6, 9, 12, 15, 18, 21, 24, 27, day 14) is listed as 98 % of control; in data set [5] (0.1 mg/kg subcutaneously, days 0, 3, 6, 9, 12, 15, 18, 21, 24, 27, day 21) it was 108 % of control; in data set [5] (0.1 mg/kg subcutaneously, days 0, 3, 6, 9, 12, 15, 18, 21, 24, 27, day 28), 118 % of control.

As for `COc1cc(Nc2ncnc(Nc3ccc4c(n3)NC(=O)C(C)(C)O4)n2)cc(OC)c1OC.Cc1ccc(S(=O)(=O)O)cc1.O` [salt monohydrate of 4-methylbenzenesulfonic acid and 2,2-dimethyl-6-((4-((3,4,5-trimethoxyphenyl)amino)-1,3,5-triazine-2-yl)amino)-2H-pyrido[3,2-1,4]oxazine-3(4H)-one Base (Polymorphic Modification B)], the “effect on osteoclast-mediated resorption of the mineralized matrix” value with mature human osteoclasts (concentrations from 1.0 μM) was “statistically significant dose-dependent inhibitory effect”.

As for `COc1cc(Nc2ncnc(Nc3ccc4c(n3)NC(=O)C(C)(C)O4)n2)cc(OC)c1OC.Cc1ccc(S(=O)(=O)O)cc1.O` [salt monohydrate of 4-methylbenzenesulfonic acid and 2,2-dimethyl-6-((4-((3,4,5-trimethoxyphenyl)amino)-1,3,5-triazine-2-yl)amino)-2H-pyrido[3,2-b][1,4]oxazine-3(4H)-one Base (Polymorphic Modification A)], the “effect on IL-1β-induced hypertrophic changes in chondrocytes (increase in aggrecan expression)” value in [6] is “statistically significant positive effect”. Moreover, in data set [7], the AUC0-t is recorded as 2,339 ng · h/ml, the “AUC0-∞” value is 2,418 ng · h/ml, the T1/2 came out at 5.0 h and the Tmax worked out at 1.5 h.

`CN1CCN(CCOc2cc(OC3CCOCC3)c3c(Nc4c(Cl)ccc5c4OCO5)ncnc3c2)CC1` [saracatinib]: in data set [8], the toxicity result is on record as “high toxicity”.

Values taken from patent US10745414B2, “Crystal salt form of 2,2-dimethyl-6-((4-((3,4,5-trimethoxyphenyl)amino)-1,3,5-triazine-2-yl)amino)-2H-pyrido[3,2-b][1,4]oxazine-3(4H)-one for human use” (LIMITED “MOLECULAR TECHNOLOGIES”, priority 2016, dated 2020).
